From patent publication US11998539B2, “Substituted aminoquinolones as DGKalpha inhibitors for immune activation” (Bayer Aktiengesellschaft, priority 2019, dated 2024) come the findings set out here.

DGKα, sequence (P23743 other isoform, or with tags, fused parts or gaps): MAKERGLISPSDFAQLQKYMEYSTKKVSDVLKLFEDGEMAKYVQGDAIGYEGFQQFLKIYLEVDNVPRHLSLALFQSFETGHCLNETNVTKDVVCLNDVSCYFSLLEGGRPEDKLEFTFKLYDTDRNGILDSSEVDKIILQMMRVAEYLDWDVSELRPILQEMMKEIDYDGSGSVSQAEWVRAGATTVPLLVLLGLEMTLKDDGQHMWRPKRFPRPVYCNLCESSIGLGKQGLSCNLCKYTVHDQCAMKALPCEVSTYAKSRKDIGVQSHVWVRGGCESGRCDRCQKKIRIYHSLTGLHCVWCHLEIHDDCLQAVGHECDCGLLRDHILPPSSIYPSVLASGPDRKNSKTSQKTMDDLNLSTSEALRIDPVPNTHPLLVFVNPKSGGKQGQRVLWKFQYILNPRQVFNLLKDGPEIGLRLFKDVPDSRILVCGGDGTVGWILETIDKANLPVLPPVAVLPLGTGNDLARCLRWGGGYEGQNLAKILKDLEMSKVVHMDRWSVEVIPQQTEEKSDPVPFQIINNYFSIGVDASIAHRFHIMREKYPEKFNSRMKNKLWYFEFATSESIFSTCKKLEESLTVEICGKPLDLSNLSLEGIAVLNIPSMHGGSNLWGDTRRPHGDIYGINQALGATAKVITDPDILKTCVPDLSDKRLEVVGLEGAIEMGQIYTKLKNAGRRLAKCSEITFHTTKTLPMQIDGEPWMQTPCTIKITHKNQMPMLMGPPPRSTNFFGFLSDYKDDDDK

The target in the assay is DGKα (Homo sapiens (Human), UniProt P23743). As to the kind of experiment: Human DGKα kinase activity inhibition assay (ADP-Glo). The assay is classed as biochemical. As to conditions: recombinant full-length human DGKα, 55 μM ATP, 7 μM 1,2-dioleoyl-sn-glycerol, read-out: IC50 values of examples in in vitro human DGKa kinase activity inhibition assays. The method, boiled down:
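Recombinant full-length human DGKα (C-terminal FLAG, from insect cells) phosphorylated 1,2-dioleoyl-sn-glycerol presented in octyl-glucopyranoside micelles. ADP formed was quantified by ADP-Glo luminescence. Compounds were added from 100-fold DMSO stocks.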
For the compound `Cc1ccc2nc(C3CCN(c4c(C(N)=O)c(=O)n(C)c5ccc(C)cc45)CC3)oc2c1` [Example 196, 1,6-dimethyl-4-[4-(6-methyl-1,3-benzoxazol-2-yl)piperidin-1-yl]-2-oxo-1,2-dihydroquinoline-3-carboxamide], the IC50 turned out to be 3.1 nM.

Turning to `Cn1c(=O)c(C(N)=O)c(N2CCC(F)(c3nc4ccccc4o3)CC2)c2ccccc21` [Example 488, 4-[4-(1,3-benzoxazol-2-yl)-4-fluoropiperidin-1-yl]-1-methyl-2-oxo-1,2-dihydroquinoline-3-carboxamide], the IC50 was determined as 1.6 nM. `CCCOc1ccc2c(c1)c(N1CCC(C)(c3nc4cc(C)ccc4o3)CC1)c(C#N)c(=O)n2C` [Example 279, 1-methyl-4-[4-methyl-4-(5-methyl-1,3-benzoxazol-2-yl)piperidin-1-yl]-2-oxo-6-propoxy-1,2-dihydroquinoline-3-carbonitrile]: the IC50 was found to be 1280 nM.

With `Cn1c(=O)c(C#N)c(N2CCC(c3cccc(S(C)(=O)=O)c3)CC2)c2ccccc21` [Example 80, 4-{4-[3-(methanesulfonyl)phenyl]piperidin-1-yl}-1-methyl-2-oxo-1,2-dihydroquinoline-3-carbonitrile], the 50% inhibitory concentration (IC50) came out at 333 nM.

For `Cc1ccc2oc(C3CCN(c4c(C#N)c(=O)n(C)c5c(Br)cccc45)CC3)nc2c1` [Example 397, 8-bromo-1-methyl-4-[4-(5-methyl-1,3-benzoxazol-2-yl)piperidin-1-yl]-2-oxo-1,2-dihydroquinoline-3-carbonitrile], the concentration for half-maximal inhibition (IC50) was 399 nM. The figure for `Cc1ccc2oc(C3(C)CCN(c4c(C#N)c(=O)n(C)c5cc(O)c(C#N)cc45)CC3)nc2c1` [Example 426, 7-hydroxy-1-methyl-4-[4-methyl-4-(5-methyl-1,3-benzoxazol-2-yl)piperidin-1-yl]-2-oxo-1,2-dihydroquinoline-3,6-dicarbonitrile] is 13 nM; for `Cc1cc(C2(C)CCN(c3c(C#N)c(=O)n(C)c4ccccc34)CC2)nc2ccccc12` [Example 364, 1-methyl-4-[4-methyl-4-(4-methylquinolin-2-yl)piperidin-1-yl]-2-oxo-1,2-dihydroquinoline-3-carbonitrile] it is 34 nM. Regarding `COc1ccc(C2CCN(c3c(C#N)c(=O)n(C)c4ccc(-c5ccccc5)cc34)CC2)cc1` [Example 181, 4-[4-(4-methoxyphenyl)piperidin-1-yl]-1-methyl-2-oxo-6-phenyl-1,2-dihydroquinoline-3-carbonitrile], the IC50 was 150 nM. Turning to `Cc1ccc(-c2csc(C3CCN(c4c(C(N)=O)c(=O)n(C)c5ccccc45)CC3)n2)cc1` [Example 478, 1-methyl-4-{4-[4-(4-methylphenyl)-1,3-thiazol-2-yl]piperidin-1-yl}-2-oxo-1,2-dihydroquinoline-3-carboxamide], the IC50 is 9.4 nM. Turning to `CCCOc1ccc2c(N3CCC(C)(c4nc5cc(C)ccc5o4)CC3)c(C#N)c(=O)n(C)c2c1` [Example 257, 1-methyl-4-[4-methyl-4-(5-methyl-1,3-benzoxazol-2-yl)piperidin-1-yl]-2-oxo-7-propoxy-1,2-dihydroquinoline-3-carbonitrile], the IC50 is 26 nM. Regarding `Cn1c(=O)c(C(N)=O)c(N2CCC(c3ccc(OC(F)(F)F)cc3)CC2)c2ccccc21` [Example 108, 1-methyl-2-oxo-4-{4-[4-(trifluoromethoxy)phenyl]piperidin-1-yl}-1,2-dihydroquinoline-3-carboxamide], the IC50 stood at 1.8 nM. With `Cn1c(=O)c(C#N)c(N2CCC[C@H](c3ccccc3)CC2)c2cccc(F)c21` [Example 328, 8-fluoro-1-methyl-2-oxo-4-[(4S)-4-phenylazepan-1-yl]-1,2-dihydroquinoline-3-carbonitrile], the IC50 came to 144 nM. In the case of `Cn1c(=O)c(C(N)=O)c(N2CCC(c3nc4ccccc4s3)CC2)c2ccc(N3CCCC3=O)cc21` [Example 116, 4-[4-(1,3-benzothiazol-2-yl)piperidin-1-yl]-1-methyl-2-oxo-7-(2-oxopyrrolidin-1-yl)-1,2-dihydroquinoline-3-carboxamide], the IC50 was determined as 36 nM. With `COCc1ccc2oc(C3(C)CCN(c4c(C#N)c(=O)n(C)c5ccccc45)CC3)nc2c1` [Example 391, 4-{4-[5-(methoxymethyl)-1,3-benzoxazol-2-yl]-4-methylpiperidin-1-yl}-1-methyl-2-oxo-1,2-dihydroquinoline-3-carbonitrile], the half-maximal inhibitory concentration (IC50) turned out to be 8.3 nM.

Consider `COc1ccc(C2CCN(c3c(C#N)c(=O)n(C)c4ccccc34)CC2)cn1` [Example 142, 4-[4-(6-methoxypyridin-3-yl)piperidin-1-yl]-1-methyl-2-oxo-1,2-dihydroquinoline-3-carbonitrile], for which the IC50 turned out to be 58 nM. The figure for `Cn1c(=O)c(C(N)=O)c(N2CCC(c3nc4ccccc4o3)CC2)c2ccc(F)cc21` [Example 305, 4-[4-(1,3-benzoxazol-2-yl)piperidin-1-yl]-7-fluoro-1-methyl-2-oxo-1,2-dihydroquinoline-3-carboxamide] is 4.5 nM; for `Cc1ccc2c(c1)c(N1CCC(c3nc4ccccc4o3)CC1)c(C#N)c(=O)n2C` [Example 165, 4-[4-(1,3-benzoxazol-2-yl)piperidin-1-yl]-1,6-dimethyl-2-oxo-1,2-dihydroquinoline-3-carbonitrile] it is 2.6 nM. Turning to `Cc1ccc2oc(C3CCN(c4c(C#N)c(=O)n(C)c5ccccc45)CC3C)nc2c1` (mixture of isomers) [Example 111, 1-methyl-4-[3-methyl-4-(5-methyl-1,3-benzoxazol-2-yl)piperidin-1-yl]-2-oxo-1,2-dihydroquinoline-3-carbonitrile, mixture of stereoisomers], the IC50 was 3.2 nM.

With `COC1(c2nc3ccccc3o2)CCN(c2c(C#N)c(=O)n(C)c3ccccc23)CC1` [Example 390, 4-[4-(1,3-benzoxazol-2-yl)-4-methoxypiperidin-1-yl]-1-methyl-2-oxo-1,2-dihydroquinoline-3-carbonitrile], the IC50 was determined as 3.5 nM. On to `COc1ccc(C2CCN(c3c(C#N)c(=O)n(C)c4ccccc34)CC2)cc1OC` [Example 324, 4-[4-(3,4-dimethoxyphenyl)piperidin-1-yl]-1-methyl-2-oxo-1,2-dihydroquinoline-3-carbonitrile], for which the IC50 was determined as 14 nM. On to `Cn1c(=O)c(C#N)c(N2CCC(C)(c3nc4cc(S(C)(=O)=O)ccc4o3)CC2)c2ccccc21` [Example 25, 4-{4-[5-(methanesulfonyl)-1,3-benzoxazol-2-yl]-4-methylpiperidin-1-yl}-1-methyl-2-oxo-1,2-dihydroquinoline-3-carbonitrile], for which the half-maximal inhibitory concentration (IC50) was found to be 168 nM. With `Cc1ccc2oc(C3CCN(c4c(C#N)c(=O)n(C)c5ccc(C(N)=O)cc45)CC3)nc2c1` [Example 404, 3-cyano-1-methyl-4-[4-(5-methyl-1,3-benzoxazol-2-yl)piperidin-1-yl]-2-oxo-1,2-dihydroquinoline-6-carboxamide], the IC50 was 5.3 nM. The figure for `COc1cc2c(cc1Br)c(N1CCC(F)(c3nc4cc(C)ccc4o3)CC1)c(C#N)c(=O)n2C` [Example 420, 6-bromo-4-[4-fluoro-4-(5-methyl-1,3-benzoxazol-2-yl)piperidin-1-yl]-7-methoxy-1-methyl-2-oxo-1,2-dihydroquinoline-3-carbonitrile] is 0.6 nM.
